Patent US8501770B2 (ArQule, Inc., priority 2009, dated 2013)

These compounds were tested against Full-length inactive AKT1 (Homo sapiens, UniProt P31749) (assay: Inactive Akt Alpha Screen Assay). Conditions: values not marked with "*"; read-out: Akt1 IC50, (AlphaScreen).
Assay type: biochemical
Method in brief: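 AlphaScreen read-out (excitation 640 nm, emission 570 nm) after 90 min incubation at room temperature in the dark. Signal comes from crosstide phosphorylation by AKT1, which was activated by added PDK1, MAPKAPK2, ATP and lipid vesicles, captured via phospho-AKT substrate antibody and streptavidin beads.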

Chain of Full-length inactive AKT1 (P31749 whole entry): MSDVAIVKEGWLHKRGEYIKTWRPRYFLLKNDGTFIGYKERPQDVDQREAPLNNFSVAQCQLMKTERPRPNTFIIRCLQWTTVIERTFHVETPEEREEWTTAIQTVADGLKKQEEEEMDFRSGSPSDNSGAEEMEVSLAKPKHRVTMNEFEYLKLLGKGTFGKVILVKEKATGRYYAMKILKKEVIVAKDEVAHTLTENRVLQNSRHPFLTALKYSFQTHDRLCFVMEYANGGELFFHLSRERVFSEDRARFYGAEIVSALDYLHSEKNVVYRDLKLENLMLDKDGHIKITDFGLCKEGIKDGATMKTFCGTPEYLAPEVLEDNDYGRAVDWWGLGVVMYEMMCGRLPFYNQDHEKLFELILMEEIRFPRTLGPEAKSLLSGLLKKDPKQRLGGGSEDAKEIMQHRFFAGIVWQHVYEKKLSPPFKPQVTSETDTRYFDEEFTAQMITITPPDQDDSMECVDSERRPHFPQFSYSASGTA

IC50	Compound
650 nM	N#Cc1ccc(-c2ccc3nc(-c4cccnc4N)n(-c4ccc(CNC(=O)c5cccc(F)c5)cc4)c3n2)cc1 [Example 326, N-(4-(2-(2-aminopyridin-3-yl)-5-(4-cyanophenyl)-3H-imidazo[4,5-b]pyridin-3-yl)benzyl)-3-fluorobenzamide]
91 nM	Nc1ccccc1-c1ccc2nc(-c3cccnc3N)n(-c3ccc(CNC(=O)c4cccc(F)c4)cc3)c2n1 [Example 327, N-(4-(5-(2-aminophenyl)-2-(2-aminopyridin-3-yl)-3H-imidazo[4,5-b]pyridin-3-yl)benzyl)-3-fluorobenzamide]
47 nM	Nc1ncccc1-c1nc2ccc(-c3ccccc3O)nc2n1-c1ccc(CNC(=O)c2cccc(F)c2)cc1 [Example 328, N-(4-(2-(2-aminopyridin-3-yl)-5-(2-hydroxyphenyl)-3H-imidazo[4,5-b]pyridin-3-yl)benzyl)-3-fluorobenzamide]
360 nM	Nc1ncccc1-c1nc2ccc(-c3ccc(F)cc3)nc2n1-c1ccc(CNC(=O)c2cccc(F)c2)cc1 [Example 329, N-(4-(2-(2-aminopyridin-3-yl)-5-(4-fluorophenyl)-3H-imidazo[4,5-b]pyridin-3-yl)benzyl)-3-fluorobenzamide]
120 nM	Nc1ncccc1-c1nc2ccc(-c3ccc(O)cc3)nc2n1-c1ccc(CNC(=O)c2cccc(F)c2)cc1 [Example 330, N-(4-(2-(2-aminopyridin-3-yl)-5-(4-hydroxyphenyl)-3H-imidazo[4,5-b]pyridin-3-yl)benzyl)-3-fluorobenzamide]
420 nM	Nc1ncccc1-c1nc2ccc(-c3ccc4cc[nH]c4c3)nc2n1-c1ccc(CNC(=O)c2cccc(F)c2)cc1 [Example 331, N-(4-(2-(2-aminopyridin-3-yl)-5-(1H-indol-6-yl)-3H-imidazo[4,5-b]pyridin-3-yl)benzyl)-3-fluorobenzamide]
160 nM	Nc1ncccc1-c1nc2ccc(-c3ccc4c(c3)OCCO4)nc2n1-c1ccc(CNC(=O)c2cccc(F)c2)cc1 [Example 332, N-(4-(2-(2-aminopyridin-3-yl)-5-(2,3-dihydro-benzo[b][1,4]dioxin-6-yl)-3H-imidazo[4,5-b]pyridin-3-yl)benzyl)-3-fluorobenzamide]
36 nM	Nc1ncccc1-c1nc2ccc(-c3ccncc3)nc2n1-c1ccc(CNC(=O)c2cccc(F)c2)cc1 [Example 334, N-(4-(2-(2-aminopyridin-3-yl)-5-(pyridin-4-yl)-3H-imidazo[4,5-b]pyridin-3-yl)benzyl)-3-fluorobenzamide]
182 nM	N#Cc1cccc(-c2ccc3nc(-c4cccnc4N)n(-c4ccc(CNC(=O)c5cccc(F)c5)cc4)c3n2)c1 [Example 335, N-(4-(2-(2-aminopyridin-3-yl)-5-(3-cyanophenyl)-3H-imidazo[4,5-b]pyridin-3-yl)benzyl)-3-fluorobenzamide]
320 nM	COC(=O)c1ccc(-c2ccc3nc(-c4cccnc4N)n(-c4ccc(CNC(=O)c5cccc(F)c5)cc4)c3n2)cc1 [Example 336, methyl 4-(2-(2-aminopyridin-3-yl)-3-(4-((3-fluorobenzamido)methyl)phenyl)-3H-imidazo[4,5-b]pyridin-5-yl)benzoate]
82 nM	Nc1ncccc1-c1nc2ccc(-c3cncnc3)nc2n1-c1ccc(CNC(=O)c2cccc(F)c2)cc1 [Example 337, N-(4-(2-(2-aminopyridin-3-yl)-5-(pyrimidin-5-yl)-3H-imidazo[4,5-b]pyridin-3-yl)benzyl)-3-fluorobenzamide]
350 nM	CC(=O)Nc1cccc(-c2ccc3nc(-c4cccnc4N)n(-c4ccc(C5(NC(=O)OC(C)(C)C)CCC5)cc4)c3n2)c1 [Example 340, tert-butyl (1-(4-(5-(3-acetamidophenyl)-2-(2-aminopyridin-3-yl)-3H-imidazo[4,5-b]pyridin-3-yl)phenyl)cyclobutyl)carbamate]
32 nM	CNC(=O)Cc1ccc(-n2c(-c3cccnc3N)nc3ccc(-c4cccc(NC(C)=O)c4)nc32)cc1 [Example 341, 2-(4-(5-(3-acetamidophenyl)-2-(2-aminopyridin-3-yl)-3H-imidazo[4,5-b]pyridin-3-yl)phenyl)-N-methylacetamide]
61 nM	CC(=O)Nc1ccc(NC(=O)Cc2ccc(-n3c(-c4cccnc4N)nc4cc(F)cnc43)cc2)cc1 [Example 342, N-(4-acetamidophenyl)-2-(4-(2-(2-aminopyridin-3-yl)-6-fluoro-3H-imidazo[4,5-b]pyridin-3-yl)phenyl)acetamide]
110 nM	CC(=O)Nc1cccc(NC(=O)Cc2ccc(-n3c(-c4cccnc4N)nc4cc(C)cnc43)cc2)c1 [Example 343, N-(3-acetamidophenyl)-2-(4-(2-(2-aminopyridin-3-yl)-6-methyl-3H-imidazo[4,5-b]pyridin-3-yl)phenyl)acetamide]
23 nM	CC(=O)Nc1cccc(-c2nc3c(cc2C)nc(-c2cccnc2N)n3-c2ccc(CNC(=O)c3ccccc3)cc2)c1 [Example 344, N-(4-(5-(3-acetamidophenyl)-2-(2-aminopyridin-3-yl)-6-methyl-3H-imidazo[4,5-b]pyridin-3-yl)benzyl)benzamide]
44 nM	Cc1cc2nc(-c3cccnc3N)n(-c3ccc(CNC(=O)c4ccccc4)cc3)c2nc1-c1ccccc1 [Example 345, N-(4-(2-(2-aminopyridin-3-yl)-6-methyl-5-phenyl-3H-imidazo[4,5-b]pyridin-3-yl)benzyl)benzamide]

IC50	Compound
86 nM	Cc1cc2nc(-c3cccnc3N)n(-c3ccc(CNC(=O)c4ccccc4)cc3)c2nc1Cl [Example 346, N-(4-(2-(2-aminopyridin-3-yl)-5-chloro-6-methyl-3H-imidazo[4,5-b]pyridin-3-yl)benzyl)benzamide]
54 nM	CC(=O)Nc1cccc(C(=O)NCc2ccc(-n3c(-c4cccnc4N)nc4cc(C)c(C)nc43)cc2)c1 [Example 347, 3-acetamido-N-(4-(2-(2-aminopyridin-3-yl)-5,6-dimethyl-3H-imidazo[4,5-b]pyridin-3-yl)benzyl)benzamide]
180 nM	Cc1ccc2nc(-c3cccnc3N)n(-c3ccc(CC(=O)c4ccccc4)cc3)c2n1 [Example 349, 2-(4-(2-(2-aminopyridin-3-yl)-5-methyl-3H-imidazo[4,5-b]pyridin-3-yl)phenyl)-1-phenylethanone]
1400 nM	CC(C)(C)OC(=O)NC1(c2ccc(-n3c(-c4cccnc4N)nc4ccc(-c5ccccc5)nc43)cc2)CCC1 [Example 350, tert-butyl (1-(4-(2-(2-aminopyridin-3-yl)-5-phenyl-3H-imidazo[4,5-b]pyridin-3-yl)phenyl)cyclobutyl)carbamate]
150 nM	CC(C)(C)OC(=O)NCc1ccc(-n2c(-c3cccnc3N)nc3ccc(-c4cn[nH]c4)nc32)cc1 [Example 354, tert-butyl 4-(2-(2-aminopyridin-3-yl)-5-(1H-pyrazol-4-yl)-3H-imidazo[4,5-b]pyridin-3-yl)benzylcarbamate]
270 nM	CC(C)(C)OC(=O)NCc1ccc(-n2c(-c3cccnc3N)nc3ccc(-c4ccccc4)nc32)cc1 [Example 355, tert-butyl 4-(2-(2-aminopyridin-3-yl)-5-phenyl-3H-imidazo[4,5-b]pyridin-3-yl)benzylcarbamate]
27 nM	NCc1ccc(-n2c(-c3cccnc3N)nc3ccc(-c4cccc(C(=O)O)c4)nc32)cc1 [Example 357, 3-(3-(4-(aminomethyl)phenyl)-2-(2-aminopyridin-3-yl)-3H-imidazo[4,5-b]pyridin-5-yl)benzoic acid]
55 nM	Nc1ncccc1-c1nc2cc(-c3ccccc3)cnc2n1-c1ccc(C2(N)CCC2)cc1 [Example 358, 3-(3-(4-(1-aminocyclobutyl)phenyl)-6-phenyl-3H-imidazo[4,5-b]pyridin-2-yl)pyridin-2-amine]
57 nM	CC(=O)Nc1cccc(-c2cnc3c(c2)nc(-c2cccnc2N)n3-c2ccc(C3(N)CCC3)cc2)c1 [Example 359, N-(3-(3-(4-(1-aminocyclobutyl)phenyl)-2-(2-aminopyridin-3-yl)-3H-imidazo[4,5-b]pyridin-6-yl)phenyl)acetamide]
360 nM	COC(=O)C1(c2ccc(-n3c(-c4cccnc4N)nc4cc(-c5ccccc5)cnc43)cc2)CCC1 [Example 361, methyl 1-(4-(2-(2-aminopyridin-3-yl)-6-phenyl-3H-imidazo[4,5-b]pyridin-3-yl)phenyl)cyclobutanecarboxylate]
250 nM	Nc1ncccc1-c1nc2cc(-c3ccccc3)cnc2n1-c1ccc(C2(C(=O)O)CCC2)cc1 [Example 363, 1-(4-(2-(2-aminopyridin-3-yl)-6-phenyl-3H-imidazo[4,5-b]pyridin-3-yl)phenyl)cyclobutanecarboxylic acid]
1.6 nM	CCOC(=O)c1cccc(-c2ccc3nc(-c4cccnc4N)n(-c4ccc(C5(N)CCC5)cc4)c3n2)c1 [Example 364, ethyl 3-(3-(4-(1-aminocyclobutyl)phenyl)-2-(2-aminopyridin-3-yl)-3H-imidazo[4,5-b]pyridin-5-yl)benzoate]
3 nM	NC(=O)c1cccc(-c2ccc3nc(-c4cccnc4N)n(-c4ccc(C5(N)CCC5)cc4)c3n2)c1 [Example 365, 3-(3-(4-(1-aminocyclobutyl)phenyl)-2-(2-aminopyridin-3-yl)-3H-imidazo[4,5-b]pyridin-5-yl)benzamide]
140 nM	CS(=O)(=O)Nc1ncccc1-c1nc2ccc(-c3ccccc3)nc2n1-c1ccc(C2(NS(C)(=O)=O)CCC2)cc1 [Example 366, N-(3-(3-(4-(1-(methylsulfonamido)cyclobutyl)phenyl)-5-phenyl-3H-imidazo[4,5-b]pyridin-2-yl)pyridin-2-yl)methanesulfonamide]
180 nM	CS(=O)(=O)NC1(c2ccc(-n3c(-c4cccnc4N)nc4ccc(-c5ccccc5)nc43)cc2)CCC1 [Example 367, N-(1-(4-(2-(2-aminopyridin-3-yl)-5-phenyl-3H-imidazo[4,5-b]pyridin-3-yl)phenyl)cyclobutyl)methanesulfonamide]
10 nM	Nc1ncc(Cl)cc1-c1nc2ccc(-c3ccccc3)nc2n1-c1ccc(C2(N)CCC2)cc1 [Example 368, 3-(3-(4-(1-aminocyclobutyl)phenyl)-5-phenyl-3H-imidazo[4,5-b]pyridin-2-yl)-5-chloropyridin-2-amine]
